The term IC50 denotes the concentration at which inhibition is half-maximal.

These results are taken from patent US20060025344A1, “Ghrelin receptor inverse agonists for regulation of feeding behaviors” (7TM Pharma A/S, priority 2002, published 2006).

“Also recorded” adds a separate entry of the source. Non-standard residues stand in square brackets, D forms with d. Residues, ends and D or L forms follow the SMILES beside them.

In one experiment the target is human ghrelin receptor (Homo sapiens, UniProt Q92847). The experiment can be described thus: Inverse agonism on basal, constitutive signalling measured by inositol phosphate turnover in transiently transfected COS-7 cells. In kind it is cell-based. Particulars: wild-type ghrelin receptor; for IC50: IP turnover. On the procedure:
Cells were transfected with Lipofectamine 2000 (Life Technologies).
(§1) Cells were washed twice in buffer, 20 mM HEPES, pH 7.4, supplemented with 140 mM NaCl, 5 mM KCl, 1 mM MgSO4, 1 mM CaCl2, 10 mM glucose, 0.05% (w/v) bovine serum; and were incubated in 0.5 ml buffer supplemented with 10 mM LiCl at 37 °C. for 30 min. […] Determinations were made in duplicates.

Experiment [1] addresses metal-ion site engineered ghrelin receptor (V:01 and V:05 substituted with His) (Homo sapiens, UniProt Q92847, L209H/M213H). The experiment can be described thus: Inverse agonism on basal inositol phosphate turnover in the metal-ion site engineered receptor. It counts as cell-based. On the procedure:
as §1
Metal-ion site engineering has previously been used as a molecular probe for both antagonism, agonism and inverse agonism (Elling et al., 1995; Elling et al., 1999; Rosenkilde et al., 1999). Here we built a metal-ion binding site into the ghrelin receptor by substituting residues V:01 and V:05 with His residues. 125 l-ghrelin bound with normal high affinity to the metal-ion site engineered receptor and ghrelin could stimulate IP turnover with a potency and efficacy as in the wild-type receptor (data not shown). […] A similar result has been obtained in the HHV8 encoded constitutively active ORF-74 receptor (Rosenkilde et al., 1999). […] This is important for the invention since the invention is aimed at small molecule, preferentially non-peptide compounds which will serve as inverse agonists against the receptor and most of these will conceivably as the majority of small molecule drugs in general in 7TM G protein coupled receptor bind in between the extracellular ends of the transmembrane segments.

The test system of another experiment is bombesin receptor 1. The following applies: according to the literature; cited from earlier work.
The target in another experiment is NK1 receptor (Homo sapiens, UniProt P25103). Nature of the experiment: Block of SP induced accumulation of IP in COS-7 cells transiently transfected with the NK1 receptor. It counts as cell-based. Particulars: data not shown.
Experiment [2] deals with lean mice, mice with diet induced obesity, ob/ob obese mice. Particulars: cited from earlier work.

Chain of human ghrelin receptor (Q92847 whole entry): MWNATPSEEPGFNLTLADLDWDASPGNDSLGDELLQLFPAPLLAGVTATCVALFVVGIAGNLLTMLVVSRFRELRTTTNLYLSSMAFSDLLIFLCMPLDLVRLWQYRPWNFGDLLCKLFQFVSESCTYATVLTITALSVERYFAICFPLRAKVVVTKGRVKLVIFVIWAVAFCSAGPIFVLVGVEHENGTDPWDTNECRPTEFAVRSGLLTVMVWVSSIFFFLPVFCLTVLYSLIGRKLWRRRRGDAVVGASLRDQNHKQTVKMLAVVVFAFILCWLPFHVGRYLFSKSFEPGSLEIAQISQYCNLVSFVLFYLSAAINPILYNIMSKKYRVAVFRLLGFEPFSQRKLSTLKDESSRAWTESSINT
Chain of NK1 receptor (P25103 whole entry, species assumed): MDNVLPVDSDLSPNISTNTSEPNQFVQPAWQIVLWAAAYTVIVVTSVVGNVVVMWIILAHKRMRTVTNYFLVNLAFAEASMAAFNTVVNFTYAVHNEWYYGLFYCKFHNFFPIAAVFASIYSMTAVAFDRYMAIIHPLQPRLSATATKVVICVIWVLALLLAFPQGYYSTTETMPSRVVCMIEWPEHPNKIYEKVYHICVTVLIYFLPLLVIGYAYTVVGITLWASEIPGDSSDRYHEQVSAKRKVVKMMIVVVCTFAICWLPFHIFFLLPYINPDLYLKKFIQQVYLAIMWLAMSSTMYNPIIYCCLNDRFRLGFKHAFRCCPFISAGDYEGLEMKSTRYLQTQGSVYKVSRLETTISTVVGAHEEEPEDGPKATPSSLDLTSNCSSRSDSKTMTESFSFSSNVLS
Chain of metal-ion site engineered ghrelin receptor (V:01 and V:05 substituted with His) (Q92847 whole entry L209H/M213H): as the sequence (Q92847 whole entry) above, with L209H, M213H counted along it

Compound `O=C(O)CCc1ccc(-c2ccc(Br)cc2)n1-c1cccc(C(F)(F)F)c1` [TM27810, 3-[5-(4-Bromo-phenyl)-1-(3-trifluoromethyl-phenyl)-1H-pyrrol-2-yl]-propionic acid] showed an IC50 on human ghrelin receptor of 6.5 µM. Further, the “efficacy as inverse agonist (in words)” value on human ghrelin receptor (absence of ghrelin) is reported as “high efficacy inverse agonist; also recorded: efficiently decreases the constitutive signalling activity”.

For the compound `[Zn+2]` [Zn(II)], the IC50 amounted to 4.3 ± 0.2 µM in experiment [1] (metal ion site engineered receptor, IP turnover, read-out: IC50 for inverse agonism on basal, constitutive signalling) and 160 ± 70 µM on human ghrelin receptor. The “efficacy as inverse agonist (in words)” value in experiment [1] (metal-ion site engineered receptor) was “full inverse agonist”.

Consider `CC(C)C[C@H](NC(=O)[C@H](CC(C)C)NC(=O)[C@@H](Cc1c[nH]c2ccccc12)NC(=O)[C@H](Cc1ccccc1)NC(=O)[C@@H](Cc1c[nH]c2ccccc12)NC(=O)[C@H](CCC(N)=O)NC(=O)[C@@H](Cc1ccccc1)NC(=O)[C@@H]1CCCN1C(=O)[C@H](CCCCN)NC(=O)[C@@H]1CCCN1C(=O)[C@H](N)CCCNC(=N)N)C(N)=O` [[D-Arg^1, D-Phe^5, D-Trp^7,9, Leu^11]-Substance P] (H-[dR]PKP[dF]Q[dW]F[dW]LL-NH2; N-terminus and C-terminus assumed), for which the “antagonist potency on the bombesin receptor (in words)” value with bombesin receptor 1 is recorded as “micromolar antagonist”. The “antagonist potency on the NK1 receptor (in words)” value on NK1 receptor is listed as “micromolar antagonist; also recorded: at micromolar concentrations also has effects”. For the same compound, the “energy intake / food intake” value in experiment [2] (lean mice, diet induced obesity mice, ob/ob obese mice, repeated administrations for six days) is “decreased”. Besides, the “rate of gastric emptying” value in experiment [2] (mice) is given as “reduced”. Also, in experiment [2] (repeated administrations, obese ob/ob mice (normal and obese mice)), the body weight gain result was “decreased”. Further, in experiment [2] (repeated administrations, obese ob/ob mice), the glycaemic control result is reported as “improved”.
